Several values for one entry are separate records, joined by “and”; a condition that tells them apart may be missing. Identical values can stand only once.
Key:
[1] = tested on: A(H3N2) virus neuraminidase (NA); type: biochemical, influenza A(H3N2) virus
[2] = tested on: B/Victoria-lineage viruses; type: cell-based, influenza B/Victoria-lineage virus
[3] = tested on: recombinant A(H1N1) virus; settings: PA-A37S in a recombinant A(H1N1) virus; ref Hashimoto et al., 2021; cited from earlier work
A(H1N1)pdm09 viruses = type: cell-based, influenza A(H1N1)pdm09 virus
influenza viruses [4] = type: cell-based, influenza virus
A(H3N2) viruses = type: cell-based, influenza A(H3N2) virus
influenza viruses [5] = settings: PA-I38V, PA-E199G alone, when present in other subtypes; ref PA marker table; cited from earlier work
[6] = tested on: A(H1N1)pdm09 virus neuraminidase (NA); type: biochemical, influenza A(H1N1)pdm09 virus
[7] = tested on: B/Victoria-lineage virus neuraminidase (NA); type: biochemical, influenza B/Victoria-lineage virus

CC(=O)N[C@H]1[C@H]([C@H](O)[C@H](O)CO)OC(C(=O)O)=C[C@@H]1N=C(N)N [Zanamivir, zanamivir]
inhibition phenotype (NI/RI/HRI) [1]: RI (key: normal inhibition (NI) is a <10-fold increase in the NAI IC50; RI is a 10- to 100-fold increase; HRI is a >100-fold increase)

COC(=O)OCOc1c2n(ccc1=O)N([C@@H]1c3ccccc3SCc3c1ccc(F)c3F)[C@@H]1COCCN1C2=O [baloxavir, baloxavir marboxil]
EC50 fold-change as compared to reference median EC50 [2]: 0.88 [1.5] fold and 0.6 fold | Fold-change in susceptibility to baloxavir compared to PA sequence-matched control virus [2]: 0.88 [1.5] fold | effect of substitution on baloxavir susceptibility [3]: did not alter baloxavir susceptibility | Fold-change in susceptibility to baloxavir compared to PA sequence-matched control virus (A(H1N1)pdm09 viruses): 4.7 [4.1] fold and 2.90 [3.7] fold | fold increase in EC50 compared to a PA sequence matched control (A(H1N1)pdm09 viruses): 4.1 fold | change in baloxavir susceptibility (influenza viruses [4]): no change | fold increase in EC50 as compared to the respective median EC50s (influenza viruses [4]): < 3 fold | fold increase in EC50 compared to the respective PA sequence-matched controls (A(H3N2) viruses): < 3 fold | effect of substitutions on in vitro baloxavir susceptibility (influenza viruses [5]): little or no effect

[H]/N=C(\N)N[C@H]1C=C(C(=O)O)O[C@@H]([C@H](OC)[C@H](O)CO)[C@@H]1NC(C)=O [Laninamivir, laninamivir]
inhibition phenotype (NI/RI/HRI) [6]: RI (key: normal inhibition (NI) is a <10-fold increase in the NAI IC50; RI is a 10- to 100-fold increase; HRI is a >100-fold increase)

CCOC(=O)C1=C[C@@H](OC(CC)CC)[C@H](NC(C)=O)[C@@H](N)C1 [Oseltamivir, oseltamivir]
inhibition phenotype (NI/RI/HRI) [7]: RI/HRI | inhibition phenotype (NI/RI/HRI) [1]: RI (key: normal inhibition (NI) is a <10-fold increase in the NAI IC50; RI is a 10- to 100-fold increase; HRI is a >100-fold increase)

CCC(CC)[C@H](NC(C)=O)[C@@H]1[C@H](O)[C@@H](C(=O)O)C[C@H]1N=C(N)N [Peramivir, peramivir]
IC50 fold-change as compared to reference median IC50 values [1]: 2 fold and 1.5 fold and 1 fold | IC50 fold-change compared to reference median IC50 values [1]: 2 (1) fold and 1.5 fold and 1 fold

From PMC9254721, “Global update on the susceptibilities of human influenza viruses to neuraminidase inhibitors and the cap-dependent endonuclease inhibitor baloxavir, 2018–2020” (Antiviral research, 2022)
